{"source": "patent US8691768B2", "about": "“Methods of determining delta opioid receptor subtypes” (The Regents of the University of California, priority 2008, dated 2014)", "key": {"Lewis rats": {"tested_on": "Lewis rats", "test": "Cocaine self administration after VTA microinjection", "type": "in vivo", "conditions": "10 mM into VTA, compared to saline", "experimental": "Lewis rats (Charles River, Mass.) weighing 275-350 g at the beginning of behavioral testing are housed and treated as previously described. Prior to cocaine self administration, rats are anesthetized with a ketamine-xylazine-acepromazine mixture and implanted with a chronic jugular catheter using methods previously described (Caine & Koob, 1993). Following surgery, rats receive daily administration of the antibiotic ticarcillin (20 mg/day at 100 mg/ml; GlaxoSmithKline, Research Triangle Park, NC). Catheter patency is tested by infusion of the fast-acting barbiturate Brevital (methohexital sodium; 1 mg/0.1 ml; Lilly, Indianapolis, Ind.). Self-administration training is conducted in operant-conditioning chambers enclosed within sound-attenuating cabinets (MED Associates, St. Albans, Vt.). […] Presses on the active lever result in either a 120 microL infusion of cocaine over a 4-s period via a Razel pump (Razel Scientific Instruments, Fairfax, Vt.) or delivery of a 45-mg food pellet (Bio-Serv, Frenchtown, N.J.). […] Presses on the active lever result in a 20-s time-out, signaled by illumination of the stimulus light and retraction of the active lever. […] Following training, rats are microinjected with either 10 mM DPDPE or saline directly into the VTA prior to cocaine self-administration and active lever presses are recorded."}, "[1]": {"tested_on": "Lewis rats, ventral tegmental area (VTA)", "test": "Ethanol self-administration (two-bottle continuous access) after microinjection into the VTA", "type": "in vivo", "experimental": "Male Lewis rats (Harlan Laboratories, Indianapolis, Ind.) weighing between 275-300 g were individually housed in a temperature controlled colony room (21° C.) maintained on a reversed light/dark cycle 12L:12D cycle (lights off at 10 A.M., lights on at 10 P.M.). All experiments were performed during the dark portion of the cycle. Food and water was provided ad libitum.\nEthanol was administered via a two-bottle continuous access, free-choice paradigm in which one bottle contained 10% ETOH (v/v) and the other bottle contained water. Sucrose was never added to the ethanol solution. The amount of ETOH and water consumed was measured at the same time daily (10 A.M.). […] Animals were weighed daily. Bottles were identical and their positions were counterbalanced and rotated daily. Change in drinking was calculated by subtracting the amount of drinking (mg/kg) on the day following treatment from the amount of drinking (mg/kg) on the day prior to treatment.\nAnimals were anesthetized and maintained on isoflurane (0.5 l/min) as needed for the duration of surgery. Animals were placed in a stereotaxic frame and were implanted with bilateral 26-gauge stainless steel chronic guide cannulas (Plastincs One, Roanoke, Va.) into the VTA (AP, −5.8; ML, ±0.5; DV, −7.0) based on the atlas of Paxinos and Watson (1997, The rat brain in sterotaxic coordinates, compact, Ed 3. San Diego: Academic). Cannulas were secured to the skull with dental cement. At the end of the surgical procedure, animals were treated with penicillin and topical antibiotics. A stainless steel dummy cannula (Plastics One) was inserted into each guide cannula and remained in place when the guide cannulas were not in use. Animals were allowed a 1 week recovery period before behavioral testing.\nEach injection was made using a 1 μl syringe (Hamilton, Reno, Nev.) attached to 20 cm of PE 50 tubing connected to a 33-gauge injection cannula (Plastics One). Microinjections of 0.5 μl volumes were given at a rate of 0.5 μl/min using a syringe pump (kd Scientific, Hollister, Mass.) into each side of the VTA, except for bicuculline injections, where 0.25 μl was injected per side. Injection cannulas extended 2 mm beyond guide cannulas and were left in place for 1 min following microinjections to minimize the backflow of drug solution. In addition to drug microinjections, physiological saline microinjections were made in every rat to measure the effect of the injection manipulation alone on drinking Drug injections were randomized and counterbalanced. Change in drinking due to drug microinjections was calculated by comparing both the previous day's consumption (“baseline”) and to saline injection. At the conclusion of the experiment, animals were anesthetized with pentobarbital and perfused intracardially through the ascending aorta with 0.1 M phosphate buffered saline followed by 10% formalin. Brains were sectioned coronally at 50 μm, mounted and stained with cresyl violet. Only animals with confirmed injection sites within the VTA were included. No behavioral differences were observed between animals with anterior compared with posterior cannula placements.\nFor behavioral experiments, DPDPE (10mM; Sigma, St. Louis, Mo.), TIPP-ψ (5 μM; NIDA, Bethesda, Md.), Bicuculline (1 mM; Sigma), DAMGO (0.2 mM; Sigma), and CTOP (10 mM; Tocris, Ellisville, Mo.) were prepared in physiological saline for microinjection into the VTA. For electrophysiology, all drugs were applied by bath perfusion. Stock solutions were made and diluted in artificial CSF immediately before application. All chemicals were obtained from Sigma or Tocris except TIPP-ψ, which was acquired from NIDA.\nResults are presented as mean±SEM where appropriate. For behavioral data, drinking was analyzed using 24 h time points. Raw drinking data were used for paired Student's t test comparisons probing drug effects on drinking compared with baseline or saline injections, a more conservative comparison than analyzing normalized data. […]"}, "[2]": {"tested_on": "GABAA IPSCs in VTA neurons", "test": "Slice electrophysiology, whole-cell patch-clamp of GABAA IPSCs in VTA neurons", "type": "cell-based, Lewis rats"}, "[3]": {"conditions": "1 μM, VTA neurons from drinking animals"}}, "data": [{"substance": "(2-D-penicillamine, 5-D-penicillamine)-enkephalin [DPDPE]", "values": [{"measurement": "cocaine self administration (active lever presses)", "setting": "Lewis rats", "value": "decrease cocaine self administration"}, {"measurement": "drinking (EtOH)", "setting": "[1]; 10 mM into VTA, compared with control saline microinjections in the same rats", "value": "also evident"}, {"measurement": "drinking (EtOH)", "setting": "[1]; 10 mM into VTA, high drinkers", "value": "only at trend level"}, {"measurement": "drinking (EtOH)", "setting": "[1]; 10 mM into VTA, low drinkers", "value": "particularly prominent"}, {"measurement": "relation between baseline EtOH consumption and % baseline drinking following administration", "setting": "[1]; 10 mM into VTA, n=15", "value": "inverse correlation"}, {"measurement": "drinking (EtOH)", "setting": "[1]; 10 mM microinjected into VTA, all animals, compared with the day before treatment", "value": "decreased drinking"}, {"measurement": "relation between DPDPE induced inhibition of evoked and spontaneous IPSCs and amount of EtOH consumed", "setting": "[2]", "value": "inverse correlation"}, {"measurement": "evoked IPSCs", "setting": "[2]; [3]", "value": "significantly inhibited"}, {"measurement": "spontaneous IPSCs", "setting": "[2]; [3]", "value": "significantly inhibited"}, {"measurement": "GABA release onto VTA neurons", "setting": "[2]; abstinent animals, 3 and 7 days off bottles", "value": "maintained its ability to inhibit GABA release"}, {"measurement": "GABAA IPSCs", "setting": "[2]; age-matched, ethanol-naive, control animals", "value": "no effect"}, {"measurement": "saturating dose", "setting": "[2]; dose-response in the animal groups, in presence of 1 μM CTAP", "value": 1, "unit": "µM"}, {"measurement": "GABA release in the VTA", "setting": "[2]; low drinkers", "value": "Decreases GABA Release"}]}]}
